Results from patent US12077503B2, “Substituted cyclic amides and their use as herbicides” (FMC CORPORATION, priority 2015, dated 2024).

Assays:
Assay type in all cases: in vivo
[1] = test system: barnyardgrass (Echinochloa crus-galli); experiment: Test A preemergence; conditions: Echinochloa crus-galli, pre-emergence, 240 h, Preemergence; for pest or weed control at 31 g/ha: 31 g ai/ha, 0 to 100 scale where 0 is no effect and 100 is complete control, read-out: Barnyardgrass plant response rating; for pest or weed control at 125 g/ha: 125 g ai/ha, visual injury rating after approximately 10 d, read-out: Barnyardgrass plant response rating (0 to 100 scale, 0 is no effect, 100 is complete control)
Procedure, shortened: (§1)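 Each rating is a visual injury score from 0 to 100 given about 10 d after treatment, judged against untreated controls kept alongside in the greenhouse. In loam soil–sand blend, seeds got a preemergence directed soil spray, while postemergence plants were 2 to 10 cm tall at spraying.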

[2] = test system: ryegrass, Italian (Italian ryegrass, Lolium multiflorum); experiment: Test A preemergence; conditions: Lolium multiflorum, pre-emergence, 240 h, 0 to 100 scale where 0 is no effect and 100 is complete control, read-out: Ryegrass, Italian plant response rating; for pest or weed control at 31 g/ha: 31 g ai/ha, Preemergence; for pest or weed control at 125 g/ha: 125 g ai/ha, preemergence, approx. 10 d
Procedure, shortened: as §1

Kochia (Kochia scoparia) [3] = experiment: Test A preemergence; conditions: Bassia scoparia, pre-emergence, 240 h, 0 to 100 scale where 0 is no effect and 100 is complete control, read-out: Kochia plant response rating; for pest or weed control at 31 g/ha: 31 g ai/ha, Preemergence; for pest or weed control at 125 g/ha: 125 g ai/ha, preemergence, approx. 10 d
Procedure, shortened: as §1

[4] = test system: pigweed (Amaranthus retroflexus); experiment: Test A preemergence; conditions: Amaranthus retroflexus, pre-emergence, 240 h, 0 to 100 scale where 0 is no effect and 100 is complete control, read-out: Pigweed plant response rating; for pest or weed control at 31 g/ha: 31 g ai/ha, Preemergence; for pest or weed control at 125 g/ha: 125 g ai/ha, preemergence, approx. 10 d
[5] = test system: ragweed (common ragweed, Ambrosia elatior); experiment: Test A preemergence; conditions: Ambrosia artemisiifolia, pre-emergence, 240 h, 0 to 100 scale where 0 is no effect and 100 is complete control, read-out: Ragweed plant response rating; for pest or weed control at 31 g/ha: 31 g ai/ha, Preemergence; for pest or weed control at 125 g/ha: 125 g ai/ha, preemergence, approx. 10 d
Procedure, shortened: as §1

[6] = test system: barnyardgrass (Echinochloa crus-galli); experiment: Test A postemergence; conditions: Echinochloa crus-galli, post-emergence, 240 h; for pest or weed control at 125 g/ha: 125 g ai/ha, postemergence, visual injury on 0 to 100 scale (0 no effect, 100 complete control), approx. 10 d, read-out: Barnyardgrass plant response rating; for pest or weed control at 31 g/ha: Postemergence, 31 g ai/ha, visual injury after approx. 10 d, 0 to 100 scale, 0 no effect, 100 complete control, read-out: Plant response rating, Barnyardgrass
Procedure, shortened: as §1

[7] = test system: ryegrass, Italian (Italian ryegrass, Lolium multiflorum); experiment: Test A postemergence; conditions: Lolium multiflorum, post-emergence, 240 h; for pest or weed control at 125 g/ha: 125 g ai/ha, postemergence, visual injury on 0 to 100 scale (0 no effect, 100 complete control), approx. 10 d, read-out: Ryegrass, Italian plant response rating; for pest or weed control at 31 g/ha: Postemergence, 31 g ai/ha, visual injury after approx. 10 d, 0 to 100 scale, 0 no effect, 100 complete control, read-out: Plant response rating, Ryegrass, Italian
Procedure, shortened: as §1

corn (Zea mays) = experiment: Test A postemergence; conditions: Zea mays, post-emergence, 240 h; for plant injury at 125 g/ha: 125 g ai/ha, postemergence, visual injury on 0 to 100 scale (0 no effect, 100 complete control), approx. 10 d, read-out: Corn plant response rating; for Corn plant response rating (crop injury, 0 = no effect, 100 = complete kill) at 31 g/ha: Postemergence, 31 g ai/ha, visual injury after approx. 10 d, 0 to 100 scale, 100 complete control
Procedure, shortened: as §1

[8] = test system: Galium (catchweed bedstraw, Galium aparine); experiment: Test A postemergence; conditions: Galium, post-emergence, 240 h; for pest or weed control at 125 g/ha: 125 g ai/ha, postemergence, visual injury on 0 to 100 scale (0 no effect, 100 complete control), approx. 10 d, read-out: Galium plant response rating; for pest or weed control at 31 g/ha: Postemergence, 31 g ai/ha, visual injury after approx. 10 d, 0 to 100 scale, 0 no effect, 100 complete control, read-out: Plant response rating, Galium
Procedure, shortened: as §1

Kochia (Kochia scoparia) [9] = experiment: Test A postemergence; conditions: Bassia scoparia, post-emergence, 240 h; for pest or weed control at 125 g/ha: 125 g ai/ha, postemergence, visual injury on 0 to 100 scale (0 no effect, 100 complete control), approx. 10 d, read-out: Kochia plant response rating; for pest or weed control at 31 g/ha: Postemergence, 31 g ai/ha, visual injury after approx. 10 d, 0 to 100 scale, 0 no effect, 100 complete control, read-out: Plant response rating, Kochia
Procedure, shortened: as §1

[10] = test system: blackgrass (Alopecurus myosuroides); experiment: Test A postemergence; conditions: Alopecurus myosuroides, post-emergence, 240 h; for pest or weed control at 125 g/ha: 125 g ai/ha, postemergence, visual injury on 0 to 100 scale (0 no effect, 100 complete control), approx. 10 d, read-out: Blackgrass plant response rating; for pest or weed control at 31 g/ha: Postemergence, 31 g ai/ha, visual injury after approx. 10 d, 0 to 100 scale, 0 no effect, 100 complete control, read-out: Plant response rating, Blackgrass
Procedure, shortened: as §1

[11] = test system: pigweed (Amaranthus retroflexus); experiment: Test A postemergence; conditions: Amaranthus retroflexus, post-emergence, 240 h; for pest or weed control at 125 g/ha: 125 g ai/ha, postemergence, visual injury on 0 to 100 scale (0 no effect, 100 complete control), approx. 10 d, read-out: Pigweed plant response rating; for pest or weed control at 31 g/ha: Postemergence, 31 g ai/ha, visual injury after approx. 10 d, 0 to 100 scale, 0 no effect, 100 complete control, read-out: Plant response rating, Pigweed
Procedure, shortened: as §1

[12] = test system: giant foxtail (Setaria faberii); experiment: Test A postemergence; conditions: Setaria faberi, post-emergence, 240 h; for pest or weed control at 125 g/ha: 125 g ai/ha, postemergence, visual injury on 0 to 100 scale (0 no effect, 100 complete control), approx. 10 d, read-out: Foxtail, Giant plant response rating; for pest or weed control at 31 g/ha: Postemergence, 31 g ai/ha, visual injury after approx. 10 d, 0 to 100 scale, 0 no effect, 100 complete control, read-out: Plant response rating, Foxtail, Giant
Procedure, shortened: as §1

[13] = test system: wheat (Triticum aestivum); experiment: Test A postemergence; conditions: Triticum aestivum, post-emergence, 240 h; for plant injury at 125 g/ha: 125 g ai/ha, postemergence, visual injury on 0 to 100 scale (0 no effect, 100 complete control), approx. 10 d, read-out: Wheat plant response rating; for plant injury at 31 g/ha: Postemergence, 31 g ai/ha, visual injury after approx. 10 d, 0 to 100 scale, 0 no effect, 100 complete control, read-out: Plant response rating, Wheat
Procedure, shortened: as §1

[14] = test system: ragweed (common ragweed, Ambrosia elatior); experiment: Test A postemergence; conditions: Ambrosia artemisiifolia, post-emergence, 240 h; for pest or weed control at 125 g/ha: 125 g ai/ha, postemergence, visual injury on 0 to 100 scale (0 no effect, 100 complete control), approx. 10 d, read-out: Ragweed plant response rating; for pest or weed control at 31 g/ha: Postemergence, 31 g ai/ha, visual injury after approx. 10 d, 0 to 100 scale, 0 no effect, 100 complete control, read-out: Plant response rating, Ragweed
Procedure, shortened: as §1

COc1cccc([C@H]2CN(C)C(=O)[C@@H]2C(=O)Nc2cccc(F)c2F)c1 [Compound 1062]
pest or weed control at 31 g/ha [1]: 100% | pest or weed control at 125 g/ha [1]: 100% | pest or weed control at 31 g/ha [2]: 10% | pest or weed control at 125 g/ha [2]: 20% | pest or weed control at 31 g/ha (Kochia (Kochia scoparia) [3]): 0% | pest or weed control at 125 g/ha (Kochia (Kochia scoparia) [3]): 20% | pest or weed control at 31 g/ha [4]: 0% | pest or weed control at 125 g/ha [4]: 0% | pest or weed control at 31 g/ha [5]: 70% | pest or weed control at 125 g/ha [5]: 0% | pest or weed control at 125 g/ha [6]: 90% | pest or weed control at 31 g/ha [6]: 70% | pest or weed control at 125 g/ha [7]: 20% | pest or weed control at 31 g/ha [7]: 0% | plant injury at 125 g/ha (corn (Zea mays)): 0% | Corn plant response rating (crop injury, 0 = no effect, 100 = complete kill) at 31 g/ha (corn (Zea mays)): 0% | pest or weed control at 125 g/ha [8]: 50% | pest or weed control at 31 g/ha [8]: 0% | pest or weed control at 125 g/ha (Kochia (Kochia scoparia) [9]): 0% | pest or weed control at 31 g/ha (Kochia (Kochia scoparia) [9]): 0% | pest or weed control at 125 g/ha [10]: 30% | pest or weed control at 31 g/ha [10]: 0% | pest or weed control at 125 g/ha [11]: 0% | pest or weed control at 31 g/ha [11]: 0% | pest or weed control at 125 g/ha [12]: 90% | pest or weed control at 31 g/ha [12]: 90% | plant injury at 125 g/ha [13]: 30% | plant injury at 31 g/ha [13]: 0% | pest or weed control at 125 g/ha [14]: 30% | pest or weed control at 31 g/ha [14]: 30%

COc1cccc([C@H]2CN(C)C(=O)[C@@H]2C(=O)Nc2ccc(F)c(F)c2F)c1 [Compound 1063]
pest or weed control at 31 g/ha [1]: 100% | pest or weed control at 125 g/ha [1]: 100% | pest or weed control at 31 g/ha [2]: 0% | pest or weed control at 125 g/ha [2]: 0% | pest or weed control at 31 g/ha (Kochia (Kochia scoparia) [3]): 10% | pest or weed control at 125 g/ha (Kochia (Kochia scoparia) [3]): 20% | pest or weed control at 31 g/ha [4]: 0% | pest or weed control at 125 g/ha [4]: 0% | pest or weed control at 31 g/ha [5]: 0% | pest or weed control at 125 g/ha [5]: 30% | pest or weed control at 125 g/ha [6]: 90% | pest or weed control at 31 g/ha [6]: 70% | pest or weed control at 125 g/ha [7]: 30% | pest or weed control at 31 g/ha [7]: 0% | plant injury at 125 g/ha (corn (Zea mays)): 50% | Corn plant response rating (crop injury, 0 = no effect, 100 = complete kill) at 31 g/ha (corn (Zea mays)): 0% | pest or weed control at 125 g/ha [8]: 50% | pest or weed control at 31 g/ha [8]: 30% | pest or weed control at 125 g/ha (Kochia (Kochia scoparia) [9]): 0% | pest or weed control at 31 g/ha (Kochia (Kochia scoparia) [9]): 0% | pest or weed control at 125 g/ha [10]: 30% | pest or weed control at 31 g/ha [10]: 20% | pest or weed control at 125 g/ha [11]: 20% | pest or weed control at 31 g/ha [11]: 0% | pest or weed control at 125 g/ha [12]: 90% | pest or weed control at 31 g/ha [12]: 80% | plant injury at 125 g/ha [13]: 40% | plant injury at 31 g/ha [13]: 0% | pest or weed control at 125 g/ha [14]: 0% | pest or weed control at 31 g/ha [14]: 0%
